Data published in paper PMC1790702, “Non-Metabolic Membrane Tubulation and Permeability Induced by Bioactive Peptides” (PLoS ONE, 2007).
Like-named read-outs stand apart in the source and are kept apart here.

Columns and labels:
[1] = Membrane deformations on giant unilamellar vesicles, phase contrast video-microscopy
Protocol: Giant unilamellar vesicles (GUVs) were obtained by electroformation as described in [49]. Briefly, 1.5 µl of PC/PG (9/1, w/w) solution (0.4 mg/ml in chloroform/methanol 9/1) were spread on each platinum electrode. The lipid film was dried for half an hour under a gentle stream of nitrogen. The chamber was placed in an inverted microscope (Zeiss Axiovert 200M) and a thermocouple positioned to monitor the temperature (25°C). The electrodes were then completely hydrated with 2 ml of a low ionic strength buffer (HEPES 0.5 mM, pH 7.4 and conductivity 20 µS/cm). Immediately after buffer addition, a low frequency alternating field (5 Hz and 1 V) was applied on the electrodes for at least 2 hours. GUVs of diameter between 10 to 100 µm were observed. […] The observation temperature was 25°C.

[2] = Small angle X-ray scattering of multilamellar vesicles, electron density profiles; format: physicochemical; settings: for S^−1 (repeat distance), Ld1 phase / S^−1 (repeat distance), Ld2 phase: 5 mM HEPES pH 7.4, 20°C; for dwater (thickness of the hydration layer), Ld2 phase: peptide-free 2.19; for dwater (thickness of the hydration layer), Ld1 phase: peptide-free 2.23; for dbilayer (thickness of the membrane bilayer), Ld1 phase: peptide-free 3.90; for Change of bilayer thickness, Ld1 phase / Change of membrane thickness, Ld2 phase: versus peptide-free PC/PG (9/1) MLVs, P/L 1/20 (w/w)
Protocol: Briefly, samples for SAXS examination were prepared by dissolving dry lipids in chloroform/methanol (2/1, vol/vol) and mixing to obtain the indicated proportions. The solvent was subsequently evaporated under a stream of oxygen-free dry nitrogen at 45°C and traces of solvent removed by a storage under high vacuum for 2 days. In order to obtain the Multiple Lamellar Vesicles (MLVs) the dry lipids were hydrated with an equal weight of buffer (5 mM HEPES pH 7.4). The aqueous lipid dispersion was thoroughly stirred to obtain a homogeneous dispersion, sealed under argon and kept until examination at 4°C. For X-ray measurements, lipid samples (∼20 µl) were deposited between two thin mica windows and mounted on a programmable thermal stage (Linkam, UK). The temperature was monitored by a thermocouple (Quad Service, Poissy, France) inserted directly into the lipid dispersion. Samples were exposed for 30 seconds to the beam (1.5 Å wavelength). The SAXS quadrant detector response was corrected for the uneven channel response using a static radioactive […] and S was calibrated for d-spacing using hydrated rat tail collagen. Information on the setup, calibration, and facilities are available on the station web site (http://www.srs.dl.ac.uk/ncd/station82/description.html).
The electron density profiles of lipid bilayers were obtained by Fourier synthesis of x-ray diffraction patterns. Integrated densities were derived from five diffraction orders (estimated spatial resolution <0.12 nm) by measuring the area under each diffraction peak separated and integrated using the software Peakfit (Seasolve).

[3] = LUV aggregation by turbidimetry; settings: for P/L ratio at which LUV aggregation decreases: peak-like profile; for Peptide/lipid mass ratio (P/L) at which LUV aggregation starts: turbidity, absorbance at 340 nm, 10 µg LUVs in 500 µl HEPES 10 mM pH 7.4, 20 min after peptide addition; for Peptide/Lipid ratio at which LUVs are aggregated efficiently: discussion, from figure 5
Protocol: (§1) Large unilamellar vesicles (LUV) were prepared by extrusion through a polycarbonate filter (pore diameter 100 nm) in an extrusion device from Avestin as described in [38]. To obtain calcein loaded LUVs, at 2 mg/ml lipid concentration (PC/PG/ [^14C] PC 9/1/0.01 mol ratio), a solution in chloroform was dried under a gentle stream of nitrogen and maintained under vacuum for at least 2 h to ascertain removal of residual solvent. Then, the dried lipid film was hydrated with 1 ml of 70 mM calcein solution in HEPES 10 mM pH 7.4, vigorously vortexed and extruded. Free calcein was separated by passing the suspension trough two gel filtration columns in tandem (Econo-Pac 10 DG, Bio-Rad). The final lipid concentration was quantified measuring the [^14C] PC radiactivity with a liquid scintillation counter LS 6000 SC (Beckman Coulter France).
LUVs aggregation was monitored by turbidimetry (absorbance at 340 nm) in a Cary spectrophotometer (Varian) as described. Peptides were added to a 500 µl quartz cuvette containing 10 µg of LUVs in a HEPES 10 mM pH 7.4 buffer and the absorbance was followed during 20 min after peptide exposure. At this time, membrane aggregation attained the plateau.

[4] = Calcein leakage from LUVs; settings: 25°C; for Calcein release: peptide/lipid ratio of 1/2, LUVs PC/PG/[14C]PC 9/1/0.01, 70 mM calcein, HEPES 10 mM pH 7.4, 5 min after peptide addition, fluorescence, relative to lysis with 1% Triton X-100
Protocol: as §1
The release of calcein after 5 minutes of peptide exposure to LUVs was measured by spectrofluorimetry (Varian eclipse) at excitation and emission wavelengths of 490 nm and 500–650 nm, respectively. […] Leakage was expressed as a percent relative of the total amount of dye released by LUVs lysis with 1% Triton X-100, according to equation: % release = 100×(F(t)−F0)/(FT−F0). F(t) is the fluorescence intensity at time t, F0 is the fluorescence intensity before peptide addition and FT the fluorescence intensity after LUVs lysis.

[5] = tested on: Annexin 2-GFP transfected MDCK cells; assay: Cell permeability, Ca2+ influx monitored by Annexin 2-GFP movement; format: cell-based; settings: for Permeability towards ions at high peptide concentration: 100 µM peptide; for Permeability towards ions at high peptide concentration / Ca2+ influx and mobilization of annexin 2 from cytosol to the plasma membrane: Annexin 2-GFP MDCK cells; for Cell permeabilization: monitored by calcium permeability inducing annexin 2 movement in MDCK cells; for Ca2+ influx and mobilization of annexin 2 from cytosol to the plasma membrane: 10 µM peptide, in 10 minutes
Protocol: (§2) Annexin 2-GFP expression vector was a kind gift of Dr Stephen Moss (London UK). The annexin2-GFP transfected MDCK cloning will be published elsewhere. MDCK cells were cultured as described. Peptides were added at different concentrations and the annexin-GFP fluorescence was followed in a Zeiss inverted microscope. Films were acquired with Metamorph software. Cytotoxicity in CHO cells was evaluated using the CCK8 cell counting kit (Dojindo Laboratories). Briefly, cell suspension (100 µl, 1500 CHO cells per well) were seeded in DMEM plus 10 % FCS in 96-well microtiter plate at 37°C. 10 µl of peptides were added twice to the cells after 24 and 48 hours of cell culture to obtain concentrations of 1, 10, 20 and 50 µM and the toxicity was evaluated 48 after treatment.

CHO cells = assay: Cytotoxicity, CCK8 cell counting kit; format: cell-based; settings: for Lethality: after 48 hours of incubation of CHO cells with 10 µM peptides, CCK8, DMEM plus 10 % FCS, 37°C
Protocol: as §2

[6] = Tryptophan fluorescence, membrane binding; settings: excitation 280 nm, PC/PG (9/1) LUVs, 25°C
Protocol: Tryptophan fluorescence was measured following the recommendations described in [51]. Excitation wavelength was 280 nm, and emission spectrum was collected (290–600 nm). Excitation and emission slits were 6 nm and 5 nm respectively. A cross-oriented configuration of the polarizer (Expol = 90°, Empol = 0°) was used in order to reduce LUVs diffusion artefacts.

[7] = PC/PG (9/1) MLVs, peptide/lipid 1/20 (w/w)
[8] = PC/PG (9/1) MLVs, peptide/lipid 1/20 (w/w), 20°C
[9] = PC/PG (9/1) MLVs, peptide/lipid 1/20 (w/w), 20°C, peptide-free 3.62
[10] = turbidity at 340 nm, HEPES 10 mM pH 7.4, 20 min, 25°C

Substance | S^−1 (repeat distance), Ld1 phase [2, 7] | S^−1 (repeat distance), Ld2 phase [2, 7] | dwater (thickness of the hydration layer), Ld2 phase [2, 8] | dwater (thickness of the hydration layer), Ld1 phase [2, 8] | dbilayer (thickness of the membrane bilayer), Ld1 phase [2, 8] | Change of bilayer thickness, Ld1 phase ([2]; 20°C) | Calcein release [4] | Permeability towards ions at high peptide concentration [5] | Cell permeabilization [5] | Lethality (CHO cells) | dbilayer (thickness of the membrane bilayer), Ld2 phase [2, 9] | Change of membrane thickness, Ld2 phase ([2]; 20°C) | P/L ratio at which LUV aggregation decreases [3, 10] | Peptide/lipid mass ratio (P/L) at which LUV aggregation starts ([3]; 25°C) | Ca2+ influx and mobilization of annexin 2 from cytosol to the plasma membrane [5] | Peptide/Lipid ratio at which LUVs are aggregated efficiently [3] | P/L ratio of peptide-membrane saturation (maximal shift in emission wavelength) [6] | other results
RPKPQQFFGLM-NH2 [SP, Substance P, neuromodulator, primary amphipathic peptide, free N-terminal amino group, reference compound] | 5.96 nm | 5.75 nm | 2.21 nm | 2.34 nm | 3.62 nm | −2.8 Å | 8% | did not induce any increase in permeability towards ions | no | 0% | – | – | – | – | – | – | – | GUV morphology at high peptide concentration ([1]; after 6 hours of incubation, 50 µl of peptide solution at 0.5 mM in 2 ml of buffer): did not perturb GUVs morphology; dbilayer (thickness of the membrane bilayer), Ld2 phase [2]: 3.54 nm; LUV aggregation ([3]; turbidity at 340 nm, HEPES 10 mM pH 7.4, 25°C): does not aggregate LUVs
RRLRRLLRRLLRRLRR-Bi [RL16, secondary amphipathic polyarginine-leucine peptide with biotin (Bi) on N-terminus] | 6.20 nm | 6.01 nm | 2.26 nm | 2.27 nm | 3.93 nm | – | 38% | – | yes | 55% | 3.75 nm | +1.3 Å | 1/10 | around 1/25 | provoked the Ca^2+ influx | – | – | GUV integrity ([1]; GUVs PC/PG 9/1, 25°C): complete GUV destruction after few seconds; P/L ratio at which a significant calcein release from LUVs is induced ([4]; 5 min after peptide addition): 1/5; Cell toxicity (CHO cells; CHO cells, 48 hours of peptide incubation): the only toxic peptide
RRRRRRRRR-NH2 [R9, Polyarginine, cell-penetrating peptide, nine arginines, free N-terminal amino group, reference compound] | – | – | – | – | – | – | 8% | did not induce any increase in permeability towards ions | no | 0% | – | – | – | 1/80 | – | 1/50 | – | Time for growing micro-tubes to invade the entire vesicle internal volume ([1]; GUVs PC/PG 9/1, 25°C): less than 20 minutes; P/L ratio at the plateau of LUV aggregation [3, 10]: 1/45
RRWRRWWRRWWRRWRR-Bi [RW16, secondary amphipathic polyarginine-tryptophane peptide with biotin (Bi) on N-terminus] | 6.08 nm | 5.89 nm | 2.18 nm | 2.25 nm | 3.83 nm | – | 14% | – | yes | 0% | 3.71 nm | 0.9 Å | 1/10 | around 1/25 | provoked the Ca^2+ influx | – | 1/10 | –
RRWWRRWRR-NH2 [RW9, short secondary amphipathic polyarginine-tryptophane peptide, free N-terminal amino group] | 5.96 nm | 5.74 nm | 2.19 nm | 2.33 nm | 3.63 nm | −2.7 Å | 7% | did not induce any increase in permeability towards ions | no | 0% | 3.55 nm | – | 1/10 | 1/35 | – | 1/30 | 1/15 | –
